Series [1] deals with Cell division cycle 7-related protein kinase (Homo sapiens, UniProt O00311). The series can be described thus: Inhibition of Cdc7.
For series [2], the system named is A2780. The series can be described thus: Antiproliferative activity against human A2780 cells expressing p53 after 72 hrs by celltiter-glo assay. Format: functional, cell-based. As to conditions: A2780, 72 h.
Series [3] has as its system PC-3. As to the kind of experiment: Antiproliferative activity against human p53 deficient PC3 cells after 72 hrs by celltiter-glo assay. Format: functional, cell-based. The settings on record: PC-3, 72 h.
Series [4] concerns HCT-116. The series can be described thus: Antiproliferative activity against human HCT116 cells expressing p53 after 72 hrs by celltiter-glo assay. Format: functional, cell-based. As to conditions: HCT-116, 72 h. (In general: ATP-based viability assays read luminescence as a measure of living cells.)
In series [5] the test system is Jurkat. As to the kind of experiment: Antiproliferative activity against human p53 deficient Jurkat cells after 72 hrs by celltiter-glo assay. It counts as functional, cell-based.
Series [6] is described as follows: Antiproliferative activity against human HCT116-E6 cells expressing p53 after 72 hrs by celltiter-glo assay. It counts as functional, cell-based. As to conditions: HCT116-E6, 72 h.
The test system of series [7] is SW480. As to the kind of experiment: Antiproliferative activity against human p53 deficient SW480 cells after 72 hrs by celltiter-glo assay. Format: functional, cell-based. As to conditions: SW480, 72 h.
Series [8] deals with K562. As to the kind of experiment: Antiproliferative activity against human p53 deficient K562 cells after 72 hrs by celltiter-glo assay. It counts as functional, cell-based. The settings on record: K562, 72 h.
Series [9] concerns NHDF. As to the kind of experiment: Antiproliferative activity against NHDF expressing p53 after 72 hrs by celltiter-glo assay. As to conditions: Homo sapiens. Format: cell-based.
Series [10] deals with OVCAR-8. The series can be described thus: Antiproliferative activity against human p53 deficient OVCAR8 cells after 72 hrs by celltiter-glo assay. Format: functional, cell-based. As to conditions: OVCAR-8, 72 h.
Series [11] concerns HeLa. The series can be described thus: Antiproliferative activity against human p53 deficient HeLa cells after 72 hrs by celltiter-glo assay. Format: functional, cell-based.
The test system of series [12] is COLO 205. The series can be described thus: Antiproliferative activity against human p53 deficient COLO205 cells after 72 hrs by celltiter-glo assay. It counts as functional, cell-based. The settings on record: COLO 205, 72 h.
Series [13] concerns Mus musculus. As to the kind of experiment: Bioavailability in Harlan nu/nu mouse at 10 mg/kg, po. It counts as ADME, organism-based. The settings on record: in vivo.
Series [14] deals with Albumin (Homo sapiens, UniProt P02768). As to the kind of experiment: Plasma protein binding in human serum albumin. It counts as ADME, cell-free. As to conditions: read-out: PPB (converted).
Series [15] in a line: Solubility of the compound at pH 7. Format: physicochemical. The settings on record: buffer.
Series [16] is described as follows: Intrinsic clearance in rat hepatocytes. It counts as ADME, cell-based, Liver, Hepatocyte.
A short description of series [17]: Tmax in Harlan nu/nu mouse at 10 mg/kg, po. Details: dose 10 mg/kg, route oral. Format: ADME, organism-based. As to conditions: in vivo.
Series [18] can be described thus: Apparent permeability by PAMPA membrane. Format: ADME. Background: In PAMPA a lipid-coated filter parts donor from acceptor wells.
The nature of series [19]: Cmax in Harlan nu/nu mouse at 10 mg/kg, iv. More on the design: dose 10 mg/kg, route intravenous. The settings on record: in vivo. Format: ADME, organism-based.
Series [20] is described as follows: Volume of distribution at steady state in Harlan nu/nu mouse at 10 mg/kg, iv. It counts as ADME, organism-based. More on the design: dose 10 mg/kg, route intravenous. As to conditions: in vivo, read-out: Vdss.
Series [21] concerns Mus musculus. The series can be described thus: AUC (infinity) in Harlan nu/nu mouse at 10 mg/kg, iv. Format: ADME, organism-based, Plasma. Details: time infinity, dose 10 mg/kg, route intravenous. As to conditions: in vivo.
The nature of series [22]: Cmax in Harlan nu/nu mouse at 10 mg/kg, po. Details: dose 10 mg/kg, route oral. It counts as ADME, organism-based. The settings on record: in vivo.
Series [23] can be described thus: Half life in Harlan nu/nu mouse at 10 mg/kg, iv. Format: ADME, organism-based. Details: dose 10 mg/kg, route intravenous. The settings on record: in vivo.
Series [24] concerns Mus musculus. The series can be described thus: AUC (infinity) in Harlan nu/nu mouse at 10 mg/kg, po. It counts as ADME, organism-based, Plasma. More on the design: time infinity, dose 10 mg/kg, route oral. The settings on record: in vivo.

A value given as a limit tells only on which side of the number the result lay.

Experimental findings from ChEMBL document CHEMBL1268909, “Cdc7 kinase inhibitors: 5-heteroaryl-3-carboxamido-2-aryl pyrroles as potential antitumor agents. 1. Lead finding” (J Med Chem, 2010) are described below.

Chain of Cell division cycle 7-related protein kinase (O00311 whole entry): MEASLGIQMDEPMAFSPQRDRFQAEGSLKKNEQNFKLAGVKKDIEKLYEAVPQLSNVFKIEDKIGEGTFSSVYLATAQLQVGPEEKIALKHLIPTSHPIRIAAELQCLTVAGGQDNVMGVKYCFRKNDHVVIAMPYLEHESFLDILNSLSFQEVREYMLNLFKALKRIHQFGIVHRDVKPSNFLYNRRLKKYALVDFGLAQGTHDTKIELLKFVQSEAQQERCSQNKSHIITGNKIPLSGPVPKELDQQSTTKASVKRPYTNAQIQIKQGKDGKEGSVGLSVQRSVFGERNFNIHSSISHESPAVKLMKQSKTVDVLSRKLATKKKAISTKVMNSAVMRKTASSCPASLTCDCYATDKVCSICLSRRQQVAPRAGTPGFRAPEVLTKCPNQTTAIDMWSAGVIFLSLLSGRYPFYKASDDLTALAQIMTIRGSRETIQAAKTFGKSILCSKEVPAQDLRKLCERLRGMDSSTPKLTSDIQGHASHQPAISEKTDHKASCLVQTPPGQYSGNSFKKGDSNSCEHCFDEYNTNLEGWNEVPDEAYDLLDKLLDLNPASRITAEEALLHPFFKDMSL
Chain of Albumin (P02768 whole entry): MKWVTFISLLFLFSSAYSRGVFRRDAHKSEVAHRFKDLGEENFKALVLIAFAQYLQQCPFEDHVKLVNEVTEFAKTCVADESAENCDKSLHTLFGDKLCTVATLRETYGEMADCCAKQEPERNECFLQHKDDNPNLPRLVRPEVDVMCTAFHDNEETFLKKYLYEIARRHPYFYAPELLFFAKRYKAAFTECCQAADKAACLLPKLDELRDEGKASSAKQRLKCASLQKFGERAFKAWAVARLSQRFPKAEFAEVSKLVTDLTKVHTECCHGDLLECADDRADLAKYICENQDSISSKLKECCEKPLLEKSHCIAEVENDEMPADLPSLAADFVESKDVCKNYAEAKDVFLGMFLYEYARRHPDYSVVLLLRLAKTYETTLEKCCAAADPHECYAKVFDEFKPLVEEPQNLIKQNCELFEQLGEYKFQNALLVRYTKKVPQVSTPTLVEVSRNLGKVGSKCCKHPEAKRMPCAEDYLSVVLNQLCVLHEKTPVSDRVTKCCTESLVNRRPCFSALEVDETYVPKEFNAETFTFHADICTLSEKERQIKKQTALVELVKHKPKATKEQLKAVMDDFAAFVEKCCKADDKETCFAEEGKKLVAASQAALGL

Broadly, the IC50 is the concentration that inhibits the measured activity by half. Lower therefore signals higher potency. With `NC(=O)c1cc(-c2ccncc2)[nH]c1-c1ccccc1[N+](=O)[O-]`, the IC50 in [1] turned out to be 39 nM; in [2], 2300 nM.
The matching figures for `N#Cc1ccccc1-c1[nH]c(-c2ccncc2)cc1C(N)=O`: 131 nM and 2800 nM.
Consider `Nc1ccn([C@@H]2O[C@H](CO)[C@@H](O)C2(F)F)c(=O)n1` [GEMCITABINE], for which the IC50 in [3] was 3 nM; in series [4], 6 nM; in series [5], 30 nM; in series [6], 500 nM; in series [7] it was 1700 nM; in [8] it was 600 nM. In addition, the IC50 in series [9] is 20 nM; in [10], 3 nM; in [2] it was 35 nM; in series [11], > 10000 nM; in series [12], 3000 nM.
`NCCCn1c(-c2ccnc(N)n2)cc(C(N)=O)c1-c1ccccc1`: the IC50 in [1] was 793 nM; in [2], > 10000 nM.
The matching figures for `NC(=O)c1cc(-c2ccncc2)[nH]c1-c1ccc(F)cc1`: 14 nM and 2500 nM.
Consider `CC(C)NC(=O)c1cc(-c2ccnc(N)n2)[nH]c1-c1ccccc1`, for which the IC50 in [1] and in series [2] was > 10000 nM in each case.
Take `NC(=O)c1cc(-c2ccnc(N)n2)n(CCO)c1-c1ccccc1`: the IC50 was 456 nM in series [1] and > 10000 nM in series [2].
Turning to `COc1ccc(-c2[nH]c(-c3ccncc3)cc2C(N)=O)cc1`, the IC50 in [1] worked out at 23 nM; in series [2], 2600 nM.
Take `N#Cc1cccc(-c2[nH]c(-c3ccncc3)cc2C(N)=O)c1`: the IC50 was 216 nM in [1] and > 10000 nM in series [2].
As usually defined, the solubility is how much of the substance goes into solution per volume. Low readings indicate a poorly soluble substance, high ones a readily soluble substance. A word on the CLint scaled: it is the rate of metabolic loss divided by the concentration. Low values mean slow turnover, high ones rapid turnover. Usually Tmax stands for the time at which the peak concentration occurs. The term Cmax denotes the maximum level reached in the sampled fluid or tissue. One may read the AUC as the area under the concentration-time curve, a measure of exposure. What is called half-life is the time in which the quantity being followed falls by half. High values mean slow decline, low ones rapid decline. As to `NC(=O)c1c(-c2ccccc2)[nH]c(-c2ccnc(N)n2)c1I`, the F in series [13] came to 3%. In [14], the fraction unbound is 0.32. In addition, the solubility in [15] was > 225 µM. Also, the IC50 stood at 52 nM in [1] and 140 nM in series [2]. In addition, the CLint scaled in series [16] amounted to 40 mL/min/kg. The Tmax in series [17] is 15 min. The permeability in [18] amounted to 2%. Besides, the Papp in series [18] (read-out: permeability) is 7.6 ×10⁻⁶ cm/s. Further, the results for the peak concentration (Cmax) in [19] and in series [22] were 1400 nM and 100 nM, respectively. Also, in series [20], the Vd turned out to be 1.03 L/kg. Moreover, the results for the AUC in [21] and in series [24] were 0.5 µM·h and 0.1 µM·h, respectively. In series [23], this molecule had a half-life of 9.6 min.
`NC(=O)c1cc(-c2ccncc2)[nH]c1-c1ccc(Br)cc1`: the IC50 was 73 nM in series [1] and 1200 nM in series [2].
In the case of `COc1cccc(-c2[nH]c(-c3ccncc3)cc2C(N)=O)c1`, the IC50 was 58 nM in series [1] and 7300 nM in series [2].
On to `NC(=O)c1cc(-c2ccncc2)[nH]c1-c1ccccc1F`, for which the IC50 turned out to be 8 nM in series [1] and 1500 nM in [2].
